Measurements from ChEMBL document CHEMBL4002608, “Discovery of new MurA inhibitors using induced-fit simulation and docking” (Bioorg Med Chem Lett, 2017).
Activity calls are given as the source filed them. The rule behind the calls is not given here.

Legend:
[1] = test system: Escherichia coli DH5[alpha]; assay: Inhibition of Escherichia coli DH5alpha C-terminal His6-tagged MurA expressed in Escherichia coli BL21(DE3) assessed as residual activity at 100 uM using UNAG as substrate after 15 mins in presence of PEP by malachite green dye based spectrophotometric method relative to control
[2] = test system: Staphylococcus aureus; assay: Antibacterial activity against Staphylococcus aureus ATCC 29213 after 20 to 24 hrs by broth microdilution assay; format: functional
[3] = Inhibition of Escherichia coli DH5alpha C-terminal His6-tagged MurA expressed in Escherichia coli BL21(DE3) using UNAG as substrate after 15 mins in presence of PEP by malachite green dye based spectrophotometric method; set-up: species or system Escherichia coli DH5[alpha]
[4] = test system: Escherichia coli; assay: Antibacterial activity against Escherichia coli ATCC 25922 after 20 to 24 hrs by broth microdilution assay; format: functional
[5] = test system: Escherichia coli DH5[alpha]; assay: (§1) Reversible inhibition of Escherichia coli DH5alpha C-terminal His6-tagged MurA expressed in Escherichia coli BL21(DE3) at 5 uM preincubated for 30 mins followed by compound dilution and subsequent substrate UNAG addition measured after 20 mins in presence of PEP by malachite green dye based spectrophotometric method
[6] = Inhibition of Escherichia coli MurA
[7] = Inhibition of Staphylococcus aureus MurA
[8] = test system: Escherichia coli DH5[alpha]; assay: as §1, with “Irreversible inhibition” for “Reversible inhibition”, “at 0.8” for “at 5”
[9] = Inhibition of Haemophilus influenzae MurA
[10] = Inhibition of Enterobacter cloacae MurA
[11] = Inhibition of methicillin-resistant Staphylococcus aureus MurA

| Structure (SMILES) | Activity [1] [%] | other results |
| --- | --- | --- |
| CO[C@H](C(=O)N1CCc2c(cnc(C)c2CNC(=O)c2cccs2)C1)c1ccccc1 | 92 |  |
| Cc1n[nH]c(S/C(=C/c2ccc(-c3cccc(C(=O)O)c3)o2)C(=O)O)n1 | < 50 | Activity [2]: inactive; IC50 [3]: 1 µM; Activity [4]: inactive; inhibition [5]: Active |
| O=[N+]([O-])/C(Br)=C/c1ccc(Br)o1 |  | IC50 [6]: 2.8 µM; IC50 [7]: 3.9 µM |
| C[C@@H]1O[C@@H]1P(=O)(O)O [FOSFOMYCIN] | < 50 | IC50 [3]: 41 µM; inhibition [8]: Active |
| O=C(O)c1ccc(-c2nccn2Cc2nc3ccccc3c(=O)[nH]2)cc1 | < 50 | Activity [2]: inactive; IC50 [3]: 82 µM; Activity [4]: inactive |
| CS(=O)(=O)N1CCc2cc(C(=O)N3CCC(c4cc5ccccc5[nH]4)CC3)ccc21 | 85 |  |
| Cc1ncc2c(c1CNC(=O)c1cc3ccccc3[nH]1)CCN(C(=O)C1=CCCC1)C2 | 66 |  |
| O=C1C(Oc2ccc(O)cc2)=C(Cl)C(=O)c2ncccc21 |  | IC50 [9]: 2.8 µM |
| CCOc1ccc(N2C(=O)[C@@H]3C4c5ccccc5C(C(=O)O)(c5ccccc54)[C@@H]3C2=O)c([N+](=O)[O-])c1 | 78 |  |
| O=c1oc2c(Cl)cc(O)c(Cl)c2s1 |  | IC50 [6]: 0.28 µM; IC50 [7]: 1.09 µM |
| CCc1cc(C(=O)N2CCN[C@H](C(=O)O)C2)c(NC(=O)c2ccccc2)s1 | 63 |  |
| C=C1C(=O)OCC1O (racemic) [(+/-)-TULIPALINE B] |  | IC50 [6]: 0.2 µM |
| CC1=C(O)C(=O)[C@H]2O[C@@H]2C1=O |  | IC50 [10]: 14 µM |
| C=C(C(=O)OC)[C@@H]1[C@@H](CCCCCCCC)OC(=O)[C@@H]1O |  | IC50 [6]: 2.8 µM; IC50 [11]: 6.7 µM |
| CCOc1ccc(N2C(=O)[C@@H]3C4c5ccccc5C(C(=O)O)(c5ccccc54)[C@@H]3C2=O)cc1 | 100 |  |
| O=C(O)[C@H]1C[C@@H](C(=O)N2CCCC2)CN(C(=O)c2[nH]nc3c2CCCC3)C1 | 100 |  |
| O=C(O)[C@H]1CC2(CCN(C(=O)c3cc4ccccc4[nH]3)CC2)CN1C(=O)C1CC1 | 100 |  |
| Cc1cc(C)nc(-c2cccc3c2O[C@@H](CNC(=O)c2ccc(N4CCN(C)CC4)cc2)C3)n1 | 98 |  |
| O=C1[C@@H]2C3c4ccccc4C(C(=O)O)(c4ccccc43)[C@@H]2C(=O)N1c1cccc([N+](=O)[O-])c1 | 98 |  |

Second part, led by results:

| Activity [1] [%] | Structure (SMILES) | other results |
| --- | --- | --- |
| 82 | c1ccc(CN2CC[C@@H](Nc3nncc(-c4cc5ccccc5o4)n3)C2)cc1 |  |
| 91 | O=C(O)COc1ccccc1[C@@H]1C2=C(CCCC2=O)Nc2nc(SCc3ccccn3)nn21 |  |
| 86 | O=C(CCN1CCCO1)N1CCc2[nH]nc(-c3cccc4ccccc34)c2C1 |  |
| < 50 | O=C(c1cnn(Cc2ccccc2)c1)N1CC=C(c2c[nH]c3ncccc23)CC1 | Activity [2]: inactive; IC50 [3]: 109 µM; Activity [4]: inactive |
| 99 | O=C(Nc1cc(CCc2ccccc2)ccn1)[C@H]1CCCN(c2ncccn2)C1 |  |
| 85 | O=C(O)C[C@H]1c2ccccc2CCN1C(=O)c1cc(=O)[nH]c2ccccc12 |  |
| 94 | CN1CCN([C@H](C(=O)O)c2c(C(=O)O)n(Cc3ccccc3)c3ccccc23)CC1 |  |
| 99 | CS(=O)(=O)N1CCN([C@H](C(=O)O)c2c(C(=O)O)n(Cc3ccccc3)c3ccccc23)CC1 |  |
| 91 | O=C(O)c1nn(CCCc2ccccc2)c2c1CN(C(=O)c1ccc[nH]1)CC2 |  |
| 96 | O=C(O)c1nn(CCCc2ccccc2)c2c1CN(C(=O)c1cnc[nH]1)CC2 |  |
| 99 | Cc1ccccc1-n1cc(CN[C@H]2CCCN(c3ncccn3)C2)cn1 |  |
| 96 | CC(=O)N1CCN([C@H](C(=O)O)c2c(C(=O)O)n(Cc3ccccc3)c3ccccc23)CC1 |  |
| 87 | O=C(O)c1c([C@@H](C(=O)O)N2CCN(c3ccccn3)CC2)c2ccccc2n1Cc1ccccc1 |  |
| 98 | C[C@@H](Oc1ccc2ccccc2c1)C(=O)NCc1nc(-c2ncccn2)no1 |  |
| 100 | Cc1c(C(=O)N2CCC[C@@H](C(N)=O)C2)sc2ncnc(NCCCc3ccccc3)c12 |  |
| 86 | Cc1ccccc1-c1cccc(CN[C@H]2CCCN(c3ncccn3)C2)c1 |  |
| 62 | O=C(C1=C(O)C(=O)N(c2nnc(SCc3ccccc3)s2)[C@@H]1c1ccc(O)cc1)c1ccco1 |  |
